Laboratory results published in PubChem BioAssay (NCI).
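Values below derive from 48-hour exposures of cells grown in 96-well plates, with endpoints linearly interpolated between the two concentrations bracketing the appropriate inhibition level. Abbreviation: GI50, concentration required for 50% inhibition of growth. At the TGI there is no net growth.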 Where a SMILES comes first, the peptide text is derived from it. The star is where a group is joined. Fmoc = O=C(OCC1c2ccccc2-c2ccccc21)*; OBn = c1ccc(CO*)cc1; tBu = CC(C)(C)*

What was measured:
Experiment in all cases: inhibition of tumour cell growth, NCI panel, 48 h
[1] = tested on: SF-268 CNS
[2] = tested on: SW-620 colon
[3] = tested on: NCI-H23 lung
[4] = tested on: MDA-MB-435
[5] = tested on: CAKI-1 renal
[6] = tested on: HOP-92 NSCLC
[7] = tested on: 786-0 renal
[8] = tested on: CCRF-CEM leukemia
[9] = tested on: MOLT-4 leukemia
[10] = tested on: U251 CNS
[11] = tested on: TK-10 renal

Row | SMILES | TGI [1] | TGI [2] | TGI [3] | TGI [4] | TGI [5] | TGI [6] | TGI [7] | TGI [8] | TGI [9] | TGI [10] | TGI [11] | GI50 [8]
1 | COc1cc(/C=C2\C(=O)N(c3ccc(Cl)cc3)C(c3ccccc3)S2(=O)=O)cc(OC)c1OC (stereo not given) | > 100 µM | > 100 µM | > 100 µM | 23.1 µM | > 100 µM | > 100 µM | > 100 µM | > 70.7 µM | > 100 µM | > 100 µM | > 100 µM | 
2 | COc1ccc(/C=C2\N=C3N(Cc4ccccc4)C=C(N)N3C2=O)cc1 | > 100 µM | > 100 µM | > 100 µM | > 100 µM | > 100 µM | > 100 µM | > 100 µM | > 100 µM | > 100 µM | 92.3 µM | > 100 µM | 
3 | Clc1ccc(C2=CC(c3ccccc3)N3C(=N[C@H]4CCCC[C@@H]43)N2)cc1 (stereo not given in full) | 25.2 µM | 15.4 µM | 20.6 µM | 20.4 µM | 26.9 µM | 17.2 µM | 10.9 µM | > 100 µM | 12.5 µM | 17.2 µM | 20 µM | 
4 | C=C(CCC(=O)N(CCc1c[nH]c2ccccc12)C(=O)c1ccccc1CSCC)C(=O)OC | > 100 µM | > 100 µM | > 100 µM | > 100 µM | > 100 µM | > 100 µM | > 100 µM | > 100 µM | > 100 µM | > 100 µM | > 100 µM | 
5 | CN=C1C=C(/N=C2/C=C(N/C(=C\C#N)C(C)(C)O)OC2(C)C)OC1(C)C | > 100 µM | > 100 µM | > 100 µM | > 100 µM | > 67.1 µM | > 71.5 µM | > 100 µM | > 74 µM | > 100 µM | > 100 µM | > 100 µM | 
6 | c1csc(-c2cc(-c3ccsc3)cs2)c1 | > 100 µM | > 100 µM | 93.8 µM | > 100 µM | > 100 µM | > 100 µM | > 100 µM | > 100 µM | > 100 µM | > 100 µM | > 100 µM | 
7 | CCOc1ccc(Nc2nc(N)nc(N)c2N=O)cc1 | > 100 µM | > 100 µM | > 100 µM | > 100 µM | 38.5 µM | 62.8 µM | > 100 µM | > 100 µM | 76.6 µM | > 100 µM | > 100 µM | 
8 | CN(CC(=O)O)c1ncc2c(n1)-c1ccccc1CC2 | > 100 µM | > 100 µM | > 100 µM | > 100 µM | > 100 µM | > 100 µM | > 100 µM | > 100 µM | > 100 µM | > 100 µM | > 100 µM | 
9 | CCCCCCCC(=O)OC[n+]1cccc(-c2c(COC(=O)NC(C)C)c(COC(=O)NC(C)C)c3n2CCC3)c1 | > 100 µM | > 100 µM | > 100 µM | > 100 µM | > 87.5 µM | > 100 µM | > 100 µM | > 84 µM | 99.4 µM | > 100 µM | > 100 µM | 
10 | COc1ccc(C=C2C(C)=NN(c3cccc(Cl)c3)C23C(Cl)C(=O)N3c2nc3ccccc3s2)cc1 (stereo not given) | 78.3 µM | 20.7 µM | 36 µM | 66.8 µM | 61 µM | 24.6 µM | 29.4 µM | 30.5 µM | 68 µM | 40.9 µM | > 100 µM | 
11 | CC(OC(C)(C)C)C(NC(=O)OCC1c2ccccc2-c2ccccc21)C(=O)NC(Cc1ccccc1)C(=O)OCc1ccccc1 (stereo not given) (Fmoc-Thr(tBu)-Phe-OBn; configuration not given here) | > 100 µM | > 100 µM | > 100 µM | > 100 µM | > 100 µM | > 100 µM | > 100 µM | > 100 µM | > 100 µM | > 100 µM | > 100 µM | 
12 | CCn1c(-c2cc3ccccc3cc2OC(C)=O)n[nH]c1=S | > 100 µM | > 100 µM | 87.9 µM | > 100 µM | > 100 µM | > 100 µM | > 100 µM | 34.2 µM | 51.3 µM | 51.4 µM | 75.6 µM | 
13 | CCOC(=O)NC(Nc1ccc(C(=O)O)cc1)(C(F)(F)F)C(F)(F)F | > 100 µM | > 100 µM | > 100 µM | > 100 µM | > 100 µM | > 100 µM | > 100 µM | > 100 µM | > 100 µM | > 100 µM | > 100 µM | 
14 | CCOC(=O)CC1(N)CC2c3ccccc3OC(=O)C2C(=O)N1 (stereo not given) | > 100 µM | > 100 µM | > 100 µM | > 100 µM | > 100 µM | > 100 µM | > 100 µM | > 100 µM | > 100 µM | > 100 µM | > 100 µM | 
15 | CC(CSc1nc2c(c(=N)n1-c1ccccc1)c(=S)n(-c1ccccc1)c(=S)n2-c1ccccc1)CN(C)C (stereo not given) | 3.24 µM | 8.1 µM | 4.89 µM | 3.13 µM | 2.97 µM | 2.97 µM | 2.37 µM | 1.49 µM | 3.02 µM | 3.28 µM | 3.07 µM | 
16 | CCOC(=O)CSc1nc(-c2ccc(Cl)cc2)c(C#N)c(=O)[nH]1 | > 100 µM | > 100 µM | > 100 µM | > 100 µM | > 100 µM | > 100 µM | > 100 µM | 89 µM | > 100 µM | > 100 µM | > 100 µM | 
17 | COC(=O)c1sc2c(Cl)c(Cl)sc2c1Cl | > 100 µM | > 100 µM | > 100 µM | > 100 µM | > 100 µM | > 100 µM | > 100 µM | > 100 µM | > 100 µM | > 100 µM | 82 µM | 
18 | CC(=O)N1CN2C(=O)CCC2c2cc(C)ccc21 (stereo not given) | > 100 µM | > 100 µM | > 100 µM | > 100 µM | > 100 µM | > 100 µM | > 100 µM | > 100 µM | > 100 µM | > 100 µM | > 100 µM | 
19 | c1ccc(CN2CCC(CNc3ncnc4ccccc34)C2)cc1 (stereo not given) | > 100 µM | > 100 µM | > 100 µM | > 100 µM | > 100 µM | > 100 µM | > 100 µM | > 100 µM | > 100 µM | > 100 µM | > 100 µM | 
20 | COc1ccc(Nc2nc(N)c(C(=O)c3ccco3)s2)cc1 | > 100 µM | > 100 µM | > 100 µM | 16.9 µM | > 100 µM | > 100 µM | > 80.1 µM | > 56.1 µM | > 55.7 µM | > 100 µM | > 57.5 µM | 
21 | CCOC(=O)C(NC(=O)c1ccccc1)(Nc1ccc(S(=O)(=O)Nc2cc(C)on2)cc1)C(F)(F)F (stereo not given) | > 100 µM | > 100 µM | > 10 µM | > 100 µM | > 100 µM | > 100 µM | > 100 µM | > 100 µM | > 100 µM | > 100 µM | > 100 µM | 
22 | Cc1c(C)c2c(c(N)c1C#N)C(=O)N(NC(=S)Nc1ccccc1)C2=O | > 100 µM | > 100 µM | > 100 µM | > 100 µM | 88.1 µM | > 100 µM | > 100 µM | > 100 µM | > 100 µM | > 100 µM | > 100 µM | 
23 | CCOC1OC(C)(C=C(C#N)C#N)CCC1C (stereo not given) | > 100 µM | > 100 µM | > 100 µM | > 100 µM | 96.2 µM | > 100 µM | > 89.2 µM | > 86 µM | > 100 µM | > 100 µM | > 100 µM | 
24 | CCOC(=O)c1c(-c2ccc(Cl)cc2)c(C#N)c(=S)n(C2OC(COC(C)=O)C(OC(C)=O)C(OC(C)=O)C2OC(C)=O)c1C (stereo not given) | > 100 µM | > 100 µM | > 100 µM | > 100 µM | > 100 µM | > 20.1 µM | > 100 µM | > 100 µM | > 100 µM | > 100 µM | > 100 µM | 
25 | COc1cc2c(cc1OCCN1CCN(CCOc3cc4c(cc3OC)C(=O)N3CCC[C@H]3C=N4)CC1)N=C[C@@H]1CCCN1C2=O | > 100 µM | > 100 µM | 46 µM | 64.2 µM | 49.3 µM | 4.27 µM | > 76.8 µM | > 100 µM | 6.78 µM | > 89.7 µM | 87.8 µM | 4.49 µM
26 | C=C(C)C1CCC2(C)C1CCC1(C)C2CCC2C3(C)C4OC(OC4=O)C(C)(C)C3CCC21C (stereo not given) | > 100 µM | > 100 µM | > 100 µM | > 100 µM | > 100 µM | > 100 µM | > 100 µM | > 100 µM | > 100 µM | > 100 µM | > 100 µM | 
27 | Fc1nc(Sc2ncnc3nc[nH]c23)nc(-c2c3ccccc3c3sc4ccccc4n23)n1 | > 100 µM | > 100 µM | > 100 µM | > 100 µM | > 100 µM | > 100 µM | > 100 µM | > 100 µM | > 100 µM | > 100 µM | > 100 µM | 
28 | CC[P+](c1ccccc1)(N(C)C)N(C)C | > 100 µM | > 100 µM | > 100 µM | > 100 µM | > 100 µM | > 100 µM | > 100 µM | > 100 µM | > 100 µM | > 100 µM | > 100 µM | 
29 | COc1cc2c(cc1OC)C(C1CC1)ON(C)CC2 (stereo not given) | > 100 µM | > 100 µM | > 100 µM | > 100 µM | > 100 µM | > 100 µM | > 100 µM | > 100 µM | > 100 µM | > 100 µM | > 100 µM | 
